From ChEMBL document CHEMBL1201862, “PubChem BioAssay data set” (2004)
Active and inactive are the calls of the source.

Assays:
[1] = molecular target: Melanin-concentrating hormone receptor 1 (Homo sapiens, UniProt Q99705); experiment: Late-stage fluorescence-based counterscreen for antagonists of the G-protein coupled receptor 7 (GPR7): cell-based dose response assay to identify antagonists of the melanin-concentrating hormone receptor 1 (MCHR1) Set 6.; assay type: functional
[2] = molecular target: T1, Neuropeptides B/W receptor type 1 (Homo sapiens, UniProt P48145); experiment: human NPBW1 receptor blockade, IC50 – cell-based, fluorescence, dose response, set 6, late-stage follow-up (AID 588583); assay type: functional
T1 sequence (P48145 whole entry): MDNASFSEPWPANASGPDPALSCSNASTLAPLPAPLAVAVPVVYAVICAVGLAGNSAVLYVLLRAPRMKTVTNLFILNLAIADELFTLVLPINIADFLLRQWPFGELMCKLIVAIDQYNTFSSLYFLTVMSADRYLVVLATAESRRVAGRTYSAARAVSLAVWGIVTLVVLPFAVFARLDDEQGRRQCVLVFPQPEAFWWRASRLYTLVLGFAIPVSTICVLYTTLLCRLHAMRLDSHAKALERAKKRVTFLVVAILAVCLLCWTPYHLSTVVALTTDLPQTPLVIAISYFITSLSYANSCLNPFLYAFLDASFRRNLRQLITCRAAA

[3] = molecular target: Ras and Rab interactor 1/Tyrosine-protein kinase ABL1 (Homo sapiens, UniProt P00519+Q13671); assay type: functional;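 further: biochemical TR-FRET dose-response test measuring inhibition of binding between Rin1 and Abl proteins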
Chain of Ras and Rab interactor 1/Tyrosine-protein kinase ABL1 (P00519 whole entry): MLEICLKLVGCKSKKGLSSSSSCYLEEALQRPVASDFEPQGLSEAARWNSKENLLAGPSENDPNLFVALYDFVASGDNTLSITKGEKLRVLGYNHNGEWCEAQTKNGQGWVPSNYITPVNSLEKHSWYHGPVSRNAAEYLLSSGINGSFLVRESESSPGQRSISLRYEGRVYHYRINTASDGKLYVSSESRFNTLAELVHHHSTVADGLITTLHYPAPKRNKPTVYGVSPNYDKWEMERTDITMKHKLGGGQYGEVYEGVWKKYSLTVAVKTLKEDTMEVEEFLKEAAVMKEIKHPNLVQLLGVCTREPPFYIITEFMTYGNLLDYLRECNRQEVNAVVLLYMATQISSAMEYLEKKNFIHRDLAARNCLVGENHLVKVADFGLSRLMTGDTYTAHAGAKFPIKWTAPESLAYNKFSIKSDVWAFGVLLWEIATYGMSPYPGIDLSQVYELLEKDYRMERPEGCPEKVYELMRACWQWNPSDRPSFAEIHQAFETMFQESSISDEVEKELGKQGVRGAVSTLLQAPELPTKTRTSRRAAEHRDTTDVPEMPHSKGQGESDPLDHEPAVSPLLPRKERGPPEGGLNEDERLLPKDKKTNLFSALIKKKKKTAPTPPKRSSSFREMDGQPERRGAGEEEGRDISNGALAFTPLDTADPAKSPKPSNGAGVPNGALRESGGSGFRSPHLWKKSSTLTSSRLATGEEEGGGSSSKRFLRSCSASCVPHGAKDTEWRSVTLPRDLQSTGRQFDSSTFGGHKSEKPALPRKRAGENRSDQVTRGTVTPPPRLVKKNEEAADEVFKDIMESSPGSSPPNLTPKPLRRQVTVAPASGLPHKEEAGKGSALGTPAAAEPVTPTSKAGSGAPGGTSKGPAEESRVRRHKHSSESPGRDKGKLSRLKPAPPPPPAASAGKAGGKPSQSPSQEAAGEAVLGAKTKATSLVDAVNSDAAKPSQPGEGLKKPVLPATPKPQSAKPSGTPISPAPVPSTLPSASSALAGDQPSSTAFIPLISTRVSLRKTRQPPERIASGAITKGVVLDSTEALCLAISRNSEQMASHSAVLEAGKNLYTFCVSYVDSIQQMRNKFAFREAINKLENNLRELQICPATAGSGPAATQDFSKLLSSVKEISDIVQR
Chain of Ras and Rab interactor 1/Tyrosine-protein kinase ABL1 (Q13671 whole entry): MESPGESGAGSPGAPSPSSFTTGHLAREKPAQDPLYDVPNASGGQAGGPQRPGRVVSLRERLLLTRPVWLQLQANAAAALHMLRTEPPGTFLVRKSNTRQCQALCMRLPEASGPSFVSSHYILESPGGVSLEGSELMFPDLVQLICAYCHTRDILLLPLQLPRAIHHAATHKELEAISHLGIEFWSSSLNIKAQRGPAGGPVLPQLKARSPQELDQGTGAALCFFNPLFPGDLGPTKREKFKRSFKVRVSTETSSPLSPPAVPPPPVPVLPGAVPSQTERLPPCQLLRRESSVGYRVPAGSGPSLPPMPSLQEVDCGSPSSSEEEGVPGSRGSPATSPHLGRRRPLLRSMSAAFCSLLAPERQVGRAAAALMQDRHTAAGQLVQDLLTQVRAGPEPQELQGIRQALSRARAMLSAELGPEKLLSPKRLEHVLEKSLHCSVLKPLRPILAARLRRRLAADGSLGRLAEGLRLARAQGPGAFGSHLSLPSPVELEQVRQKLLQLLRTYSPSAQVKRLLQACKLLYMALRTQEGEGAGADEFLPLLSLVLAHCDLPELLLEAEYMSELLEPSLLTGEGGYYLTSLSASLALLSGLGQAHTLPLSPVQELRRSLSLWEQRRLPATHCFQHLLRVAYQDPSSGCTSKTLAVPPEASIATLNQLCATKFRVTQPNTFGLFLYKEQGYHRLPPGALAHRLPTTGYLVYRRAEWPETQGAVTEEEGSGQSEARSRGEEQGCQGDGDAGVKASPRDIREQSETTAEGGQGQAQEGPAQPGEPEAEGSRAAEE

[4] = molecular target: T2, Diacylglycerol lipase-beta (Mus musculus, UniProt Q91WC9); experiment: Late stage assay provider results from the probe development effort to identify inhibitors of diacylglycerol lipase, beta (DAGLb): LCMS-based biochemical dose response assay.; assay type: functional
T2 sequence (Q91WC9 whole entry): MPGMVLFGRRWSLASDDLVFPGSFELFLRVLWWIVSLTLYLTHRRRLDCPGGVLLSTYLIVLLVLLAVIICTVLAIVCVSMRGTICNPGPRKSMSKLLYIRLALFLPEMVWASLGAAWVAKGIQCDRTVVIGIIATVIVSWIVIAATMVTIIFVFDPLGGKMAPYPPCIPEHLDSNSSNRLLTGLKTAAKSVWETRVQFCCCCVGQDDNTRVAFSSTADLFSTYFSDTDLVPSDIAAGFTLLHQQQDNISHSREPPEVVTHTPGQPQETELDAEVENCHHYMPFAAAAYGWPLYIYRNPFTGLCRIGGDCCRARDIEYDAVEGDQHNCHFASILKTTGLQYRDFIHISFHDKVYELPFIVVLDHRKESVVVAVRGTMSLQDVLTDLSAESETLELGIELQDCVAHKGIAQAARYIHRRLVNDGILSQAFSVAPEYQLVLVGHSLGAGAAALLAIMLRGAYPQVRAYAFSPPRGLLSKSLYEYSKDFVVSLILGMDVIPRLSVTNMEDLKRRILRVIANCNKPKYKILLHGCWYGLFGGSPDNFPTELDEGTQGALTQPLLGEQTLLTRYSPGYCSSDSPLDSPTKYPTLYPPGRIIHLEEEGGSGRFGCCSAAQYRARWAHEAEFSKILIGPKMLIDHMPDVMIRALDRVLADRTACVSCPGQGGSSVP

[5] = molecular target: T2, Diacylglycerol lipase-beta; experiment: Late stage assay provider results from the probe development effort to identify inhibitors of diacylglycerol lipase, beta (DAGLb): fluorescence-based dose-response biochemical gel-based competitive Activity-Based Protein Profiling (ABPP) inhibition of DAGLb in vitro.; assay type: functional
[6] = molecular target: Adenosylmethionine-8-amino-7-oxononanoate aminotransferase (Mycobacterium tuberculosis, UniProt P9WQ81); experiment: Mycobacterium tuberculosis BioA enzyme inhibitor Measured in Biochemical System Using Plate Reader - 2163-02_Inhibitor_Dose_CherryPick_Activity.; assay type: functional, Mycobacterium tuberculosis UT205
Chain of Adenosylmethionine-8-amino-7-oxononanoate aminotransferase (P9WQ81 whole entry): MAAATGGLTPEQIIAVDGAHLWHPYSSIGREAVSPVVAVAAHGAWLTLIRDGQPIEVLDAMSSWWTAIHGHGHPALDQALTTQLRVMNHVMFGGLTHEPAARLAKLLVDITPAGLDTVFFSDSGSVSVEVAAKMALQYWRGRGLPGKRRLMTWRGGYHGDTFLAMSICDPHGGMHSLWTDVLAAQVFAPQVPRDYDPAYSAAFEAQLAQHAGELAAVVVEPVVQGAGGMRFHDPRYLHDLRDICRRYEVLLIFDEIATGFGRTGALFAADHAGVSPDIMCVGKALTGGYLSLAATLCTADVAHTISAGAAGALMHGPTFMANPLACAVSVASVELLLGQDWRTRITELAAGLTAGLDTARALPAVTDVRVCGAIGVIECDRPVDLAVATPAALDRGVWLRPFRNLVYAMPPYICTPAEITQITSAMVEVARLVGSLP

Chain of Melanin-concentrating hormone receptor 1 (Q99705 whole entry): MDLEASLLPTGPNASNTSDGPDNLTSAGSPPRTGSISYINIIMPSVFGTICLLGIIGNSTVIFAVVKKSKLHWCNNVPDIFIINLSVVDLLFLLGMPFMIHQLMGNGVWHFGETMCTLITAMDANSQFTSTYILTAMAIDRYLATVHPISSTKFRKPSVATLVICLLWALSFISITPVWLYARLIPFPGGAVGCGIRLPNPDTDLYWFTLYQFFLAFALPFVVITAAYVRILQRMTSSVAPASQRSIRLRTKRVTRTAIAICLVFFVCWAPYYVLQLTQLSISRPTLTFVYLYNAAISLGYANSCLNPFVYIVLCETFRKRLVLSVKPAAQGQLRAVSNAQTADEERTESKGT

Structure (SMILES): Cc1cc(C(C#N)c2c(Cl)cnn(Cc3cccc4ccccc34)c2=O)on1 (stereo unspecified)
- IC50 [1]: 136 nM (active)
- IC50 [2]: 136 nM (active)

Structure (SMILES): O=C(CC1SCCNC1=O)Nc1cc(Cl)cc(Cl)c1 (stereo unspecified)
- IC50 [3]: 26400 nM (inactive)

Structure (SMILES): O=C(N1CCCCC1Cc1ccccc1)n1cc(-c2ccc(-c3ccccc3)cc2)nn1 (stereo unspecified)
- IC50 [4]: 100 nM (active)
- IC50 [5]: 43 nM (active)

Structure (SMILES): O=C(N[C@H]1CC[C@@H](CCn2cc(-c3cccnc3)nn2)O[C@H]1CO)c1ccccc1F
- AC50 [6]: 12300 nM (active)
